This note sets out measurements from patent publication US11299461B2 (priority 2018, dated 2022).

SMILES strings stand for the structures.

The target of this assay is LF 263-C catalytic domain (anthrax lethal factor) (Bacillus anthracis, UniProt P15917). As to the kind of experiment: biochemical.
Sequence of LF 263-C catalytic domain (anthrax lethal factor) (P15917 296-809 limits assumed): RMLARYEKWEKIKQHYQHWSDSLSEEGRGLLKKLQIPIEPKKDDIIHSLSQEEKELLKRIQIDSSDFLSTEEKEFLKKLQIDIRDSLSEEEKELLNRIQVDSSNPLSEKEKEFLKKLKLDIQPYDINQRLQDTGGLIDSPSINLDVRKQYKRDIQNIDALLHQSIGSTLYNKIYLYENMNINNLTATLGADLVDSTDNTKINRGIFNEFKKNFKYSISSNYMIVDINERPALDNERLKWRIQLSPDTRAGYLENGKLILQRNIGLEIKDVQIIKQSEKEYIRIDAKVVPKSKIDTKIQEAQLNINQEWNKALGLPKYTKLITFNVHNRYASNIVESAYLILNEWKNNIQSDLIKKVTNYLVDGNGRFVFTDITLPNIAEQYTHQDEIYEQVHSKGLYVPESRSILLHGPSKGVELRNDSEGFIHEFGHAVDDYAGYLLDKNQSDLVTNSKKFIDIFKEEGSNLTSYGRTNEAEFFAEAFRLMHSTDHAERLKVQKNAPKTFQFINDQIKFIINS

Consider `CC(C)[C@@H](NCCCC[C@@H](Cc1cc(Cl)c(F)c(Cl)c1)C(=O)NO)c1ccc(F)cn1` [Compound 34, (S)-2-(3,5-dichloro-4-fluorobenzyl)-6-(((R)-1-(5-fluoropyridin-2-yl)-2-methylpropyl)amino)-N-hydroxyhexanamide], for which affinity was put at a Ki of 0.6 nM.

Regarding `CC(C)[C@@H](NCCCC[C@@H](Cc1cc(Cl)c(F)c(Cl)c1)C(=O)NO)c1ccc(Cl)cn1` [Compound 35, (S)-6-(((R)-1-(5-chloropyridin-2-yl)-2-methylpropyl)amino)-2-(3,5-dichloro-4-fluorobenzyl)-N-hydroxyhexanamide], the Ki (commonly a dissociation constant, usually derived from enzyme kinetics or from competition with a known ligand) stood at 0.42 nM.

For `Cc1cc(C[C@H](CCCCN[C@@H](c2ccc(F)cn2)C(C)C)C(=O)NO)cc(F)c1F` [Compound 36, (S)-2-(3,4-difluoro-5-methylbenzyl)-6-(((R)-1-(5-fluoropyridin-2-yl)-2-methylpropyl)amino)-N-hydroxyhexanamide], the inhibition constant (Ki) amounted to 0.72 nM.

The compound `Cc1cc(C[C@H](CCCCN[C@@H](c2ccc(Cl)cn2)C(C)C)C(=O)NO)cc(F)c1F` [Compound 37, (S)-6-(((R)-1-(5-chloropyridin-2-yl)-2-methylpropyl)amino)-2-(3,4-difluoro-5-methylbenzyl)-N-hydroxyhexanamide] gave a Ki of 0.87 nM.

With `COc1ccc(CN(C)CCCC[C@@H](Cc2cc(C)c(F)c(F)c2)C(=O)NO)nc1` [Compound 38, (S)-2-(3,4-difluoro-5-methylbenzyl)-N-hydroxy-6-(((5-methoxypyridin-2-yl)methyl)(methyl)amino)hexanamide], the Ki was found to be 4.9 nM.

In the case of `CO[C@H](C[C@H](CCCCN[C@H](CO)c1ccc(F)cn1)C(=O)NO)c1ccc(F)cc1` [Compound 39, (S)-2-((R)-2-(4-fluorophenyl)-2-methoxyethyl)-6-(((S)-1-(5-fluoropyridin-2-yl)-2-hydroxyethyl)amino)-N-hydroxyhexanamide], the Ki was 1.7 nM.

Take `CCN(CCCC[C@@H](C[C@@H](OC)c1ccc(F)cc1)C(=O)NO)Cc1ccc(Cl)cn1` [Compound 40, (S)-6-(((5-chloropyridin-2-yl)methyl)(ethyl)amino)-2-((R)-2-(4-fluorophenyl)-2-methoxyethyl)-N-hydroxyhexanamide]: the affinity corresponds to a Ki of 4.5 nM.

As to `CO[C@H](C[C@H](CCCCNCc1ccc(Cl)cn1)C(=O)NO)c1ccc(F)cc1` [Compound 41, (S)-6-(((5-chloropyridin-2-yl)methyl)amino)-2-((R)-2-(4-fluorophenyl)-2-methoxyethyl)-N-hydroxyhexanamide], the Ki amounted to 2.2 nM.

For `CO[C@H](C[C@H](CCCCN(C)Cc1ccc(Cl)cn1)C(=O)NO)c1ccc(F)cc1` [Compound 42, (S)-6-(((5-chloropyridin-2-yl)methyl)(methyl)amino)-2-((R)-2-(4-fluorophenyl)-2-methoxyethyl)-N-hydroxyhexanamide], the affinity corresponds to a Ki of 3 nM.

`CO[C@H](C[C@H](CCCCN(C)Cc1ccc(Br)cn1)C(=O)NO)c1ccc(F)cc1` [Compound 43, (S)-6-(((5-bromopyridin-2-yl)methyl)(methyl)amino)-2-((R)-2-(4-fluorophenyl)-2-methoxyethyl)-N-hydroxyhexanamide] gave a Ki of 12.5 nM.

`CCc1cc(Cl)cnc1CN(C)CCCC[C@@H](C[C@@H](OC)c1ccc(F)cc1)C(=O)NO` [Compound 44, (S)-6-(((5-chloro-3-ethylpyridin-2-yl)methyl)(methyl)amino)-2-((R)-2-(4-fluorophenyl)-2-methoxyethyl)-N-hydroxyhexanamide] yielded a Ki of 6.7 nM.

`CO[C@H](C[C@H](CCCCN(C)Cc1cccc(C)n1)C(=O)NO)c1ccc(F)cc1` [Compound 45, (S)-2-((R)-2-(4-fluorophenyl)-2-methoxyethyl)-N-hydroxy-6-(methyl((6-methylpyridin-2-yl)methyl)amino)hexanamide] had an inhibition constant (Ki) of 15.8 nM.

The compound `CO[C@H](C[C@H](CCCCN(C)Cc1cc(C)ccn1)C(=O)NO)c1ccc(F)cc1` [Compound 46, (S)-2-((R)-2-(4-fluorophenyl)-2-methoxyethyl)-N-hydroxy-6-(methyl((4-methylpyridin-2-yl)methyl)amino)hexanamide] had a Ki of 14 nM.

In turn, `CO[C@H](C[C@H](CCCCN(CCO)Cc1ncc(F)cc1Cl)C(=O)NO)c1ccc(F)cc1` [Compound 47, (S)-6-(((3-chloro-5-fluoropyridin-2-yl)methyl)(2-hydroxyethyl)amino)-2-((R)-2-(4-fluorophenyl)-2-methoxyethyl)-N-hydroxyhexanamide] yielded an inhibitory constant (Ki) of 53.5 nM.

Take `CO[C@H](C[C@H](CCCCN[C@@H](c1ccc(F)cn1)C(C)C)C(=O)NO)c1ccc(F)cc1` [Compound 48, (S)-2-((R)-2-(4-fluorophenyl)-2-methoxyethyl)-6-(((R)-1-(5-fluoropyridin-2-yl)-2-methylpropyl)amino)-N-hydroxyhexanamide]: the Ki amounted to 0.62 nM.

For `COc1ccc([C@H](NCCCC[C@@H](C[C@@H](OC)c2ccc(F)cc2)C(=O)NO)C(C)C)nc1` [Compound 49, (S)-2-((R)-2-(4-fluorophenyl)-2-methoxyethyl)-N-hydroxy-6-(((R)-1-(5-methoxypyridin-2-yl)-2-methylpropyl)amino)hexanamide], the Ki amounted to 2.7 nM.

In the case of `CO[C@H](C[C@H](CCCCN[C@@H](c1ccc(F)c(C)n1)C(C)C)C(=O)NO)c1ccc(F)cc1` [Compound 50, (S)-6-(((R)-1-(5-fluoro-6-methylpyridin-2-yl)-2-methylpropyl)amino)-2-((R)-2-(4-fluorophenyl)-2-methoxyethyl)-N-hydroxyhexanamide], the affinity, expressed as Ki, was 2.7 nM.

`CO[C@H](C[C@H](CCCCN[C@@H](c1ccc(Cl)cn1)C(C)C)C(=O)NO)c1ccc(F)cc1` [Compound 51, (S)-6-(((R)-1-(5-chloropyridin-2-yl)-2-methylpropyl)amino)-2-((R)-2-(4-fluorophenyl)-2-methoxyethyl)-N-hydroxyhexanamide]: the affinity, expressed as Ki, was 0.54 nM.

In turn, `CO[C@H](C[C@H](CCCCN[C@@H](c1ncc(F)cc1F)C(C)C)C(=O)NO)c1ccc(F)cc1` [Compound 52, (S)-6-(((R)-1-(3,5-difluoropyridin-2-yl)-2-methylpropyl)amino)-2-((R)-2-(4-fluorophenyl)-2-methoxyethyl)-N-hydroxyhexanamide] had a Ki of 2.1 nM.

In turn, `CO[C@H](C[C@H](CCCCN[C@@H](c1ncc(Cl)cc1Cl)C(C)C)C(=O)NO)c1ccc(F)cc1` [Compound 53, (S)-6-(((R)-1-(3,5-dichloropyridin-2-yl)-2-methylpropyl)amino)-2-((R)-2-(4-fluorophenyl)-2-methoxyethyl)-N-hydroxyhexanamide] registered a Ki of 6.2 nM.

Consider `CC[C@@H](NCCCC[C@@H](C[C@@H](OC)c1ccc(F)cc1)C(=O)NO)c1ncc(Cl)cc1Cl` [Compound 54, (S)-6-(((R)-1-(3,5-dichloropyridin-2-yl)propyl)amino)-2-((R)-2-(4-fluorophenyl)-2-methoxyethyl)-N-hydroxyhexanamide], for which the Ki came out at 2.4 nM.

Turning to `CO[C@H](C[C@H](CCCCN[C@H](C)c1ccc(Cl)cn1)C(=O)NO)c1ccc(F)cc1` [Compound 55, (S)-6-(((R)-1-(5-chloropyridin-2-yl)ethyl)amino)-2-((R)-2-(4-fluorophenyl)-2-methoxyethyl)-N-hydroxyhexanamide], the Ki amounted to 1.6 nM.

`CC[C@@H](NCCCC[C@@H](C[C@@H](OC)c1ccc(F)cc1)C(=O)NO)c1ccc(Cl)cn1` [Compound 56, (S)-6-(((R)-1-(5-chloropyridin-2-yl)propyl)amino)-2-((R)-2-(4-fluorophenyl)-2-methoxyethyl)-N-hydroxyhexanamide] displayed a Ki of 0.79 nM.

Take `CCN(CCCC[C@@H](C[C@@H](OC)c1ccc(F)c(C)c1)C(=O)NO)Cc1ccc(Cl)cn1` [Compound 57, (S)-6-(((5-chloropyridin-2-yl)methyl)(ethyl)amino)-2-((R)-2-(4-fluoro-3-methylphenyl)-2-methoxyethyl)-N-hydroxyhexanamide]: the inhibition constant Ki is 2.8 nM.

For the compound `CO[C@H](C[C@H](CCCCN[C@@H](c1ccc(Cl)cn1)C(C)C)C(=O)NO)c1ccc(F)c(C)c1` [Compound 58, (S)-6-(((R)-1-(5-chloropyridin-2-yl)-2-methylpropyl)amino)-2-((R)-2-(4-fluoro-3-methylphenyl)-2-methoxyethyl)-N-hydroxyhexanamide], the affinity, expressed as Ki, was 2.3 nM.
